Like-named read-outs stand apart in the source and are kept apart here. Marks after values point to notes of the source that are not given here.
What was measured:
SH-SY5Y cells [1] = assay: Neuroprotection against Aβ1–42 peptide-induced cytotoxicity (resazurin reduction); settings: for neuroprotective effect against Aβ1–42 peptide-induced cytotoxicity: 10 μM pre-treatment 24 h, then Aβ1–42 25 μM 48 h
Procedure: The antioxidant efficiency of the new HBAc derivatives was evaluated in the presence of Aβ1–42 peptide. […] Aβ1–42 aliquots were then stored at −20°C until use (enriched oligomeric Aβ1–42 preparation).
Undifferentiated SH-SY5Y cells were seeded onto 96-well plates (8000 cells/well) and differentiated as previously described. […] After incubation time, cellular metabolic activity was determined using the resazurin reduction assay as previously described.
Aβ aggregation, the pathological hallmark of AD, is the most targeted biomarker in drug discovery and development for AD.

BChE [2] = molecular target: T1, BChE (Homo sapiens, UniProt P06276); assay: biochemical
T1 construct: purchased Sigma-Aldrich Química S. A
T1 sequence (P06276 29-602, species assumed): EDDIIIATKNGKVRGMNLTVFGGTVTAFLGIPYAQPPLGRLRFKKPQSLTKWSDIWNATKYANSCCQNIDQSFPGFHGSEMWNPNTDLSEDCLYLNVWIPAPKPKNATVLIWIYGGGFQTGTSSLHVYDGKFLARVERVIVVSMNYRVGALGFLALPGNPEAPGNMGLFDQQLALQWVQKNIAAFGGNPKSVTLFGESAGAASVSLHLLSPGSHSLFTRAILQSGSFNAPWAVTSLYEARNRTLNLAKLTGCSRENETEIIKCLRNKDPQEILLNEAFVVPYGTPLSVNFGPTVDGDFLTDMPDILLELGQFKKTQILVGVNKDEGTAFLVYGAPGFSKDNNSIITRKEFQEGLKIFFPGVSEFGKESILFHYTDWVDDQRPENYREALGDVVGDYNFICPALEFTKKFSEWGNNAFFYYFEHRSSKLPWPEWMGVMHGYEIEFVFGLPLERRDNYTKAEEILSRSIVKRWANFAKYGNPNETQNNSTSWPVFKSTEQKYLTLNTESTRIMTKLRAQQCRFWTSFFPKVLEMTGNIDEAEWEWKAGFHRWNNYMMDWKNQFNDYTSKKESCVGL
From the text: (§1) Acetylcholinesterase (AChE) from Electrophorus electricus (electric eel), butyrylcholinesterase (BChE) and acetylthiocholine iodide (ATCI), butyrylthiocholine iodide (BTCI), 5,5′-dithiobis-(2-nitrobenzoate) (DTNB), (4,5-dimethylthiazol-2-yl)-2,5-diphenyl tetrazolium (MTT) bromide and Dulbecco's modified Eagle's medium (DMEM) with 4.5 g/L glucose were obtained from Sigma-Aldrich Química S. A. Reagents used in cell culture, including nonessential amino acids (NEAA), heat inactivated fetal bovine serum (FBS), 0.05% trypsin/1 mM EDTA, antibiotic (10000 U/mL penicillin, 10,000 μg/mL streptomycin) and Hank's balanced salt solution (HBSS) were purchased from Gibco Laboratories. Dimethylsulfoxide (DMSO-d6), absolute ethanol and acetic acid were obtained from Merck. All reagents were of analytical grade or of the highest grade available.
(§2) Briefly, 100 μL of sodium phosphate buffer, 40 μL of DTNB, 20 μL of the test compounds/standard inhibitors and 20 μL of AChE or BChE were incubated for 5 min at 30°C in a 96-well microplate (BRANDplates, pureGradeTM, BRAND GMBH, Wertheim, Germany). After that, 20 μL of ATCI or BTCI was added, respectively. […] A control using 20 μL of sodium phosphate buffer instead of compound solution was also performed. The IC50 values were determined in triplicate from the dose-response inhibition curves and are expressed as mean ± standard deviation (SD).
(§3) ATCI and BTCI were used as substrates for AChE or BChE, respectively, generating thiocholine and acetate or butyrate.

SH-SY5Y cells [3] = assay: Cytotoxicity in differentiated SH-SY5Y cells (MTT reduction); format: cell-based, human; settings: 24 h; for cellular metabolic activity (MTT reduction), cytotoxicity: differentiated SH-SY5Y, 1, 10 and 50 μM
Procedure: SH-SY5Y (ATCC, Manassas, VA, USA), a neuroblastoma cell line, was routinely cultured in 75-cm^2 flasks (Corning Costar, Corning, NY, USA) using DMEM with 4.5 g/L glucose, supplemented with 10% heat-inactivated FBS (v/v), 1% NEAA (v/v), 100 U/mL penicillin, and 100 μg/mL streptomycin. The cells used for all the experiments were taken between the 37th and 45th passages, to avoid phenotypic changes. […] Three days after seeding, the medium of cells was changed, adding cell culture medium with 0.1% of TPA for more 3 days before treatment.
(§4) The cytotoxicity profile of the compounds under study was evaluated in differentiated SH-SY5Y cells (8,000 cells/well), according the differentiation protocol previously described, and in HepG2 cells (2.5 × 10^4 cells/well), seeded into 96-well plates. […]. In both assays, the reduction of MTT tetrazolium salt or resazurin to MTT formazan or resorufin, respectively, by cellular dehydrogenases present in viable cells, gives insights on cell metabolic activity.
For the MTT assay, the cell culture medium was removed after the incubation time, followed by the addition of fresh cell culture medium containing 0.5 mg/mL MTT and incubation for 30 min. After this incubation period, the cell culture medium was removed, and the formed formazan crystals dissolved in DMSO. The absorbance was measured at 550 nm in a multi-well plate reader (BioTek Instruments, Vermont, USA). The percentage of MTT reduction relative to that of the control cells was used as the cytotoxicity measure [MTT reduction (% of control)] as means ± SEM of four independent experiments.

AChE [4] = molecular target: T2, AChE (Electrophorus electricus, UniProt O42275); assay: AChE inhibition, Ellman's method; format: biochemical, Electrophorus electricus (electric eel)
T2 construct: purchased Sigma-Aldrich Química S. A
T2 sequence (O42275 24-633): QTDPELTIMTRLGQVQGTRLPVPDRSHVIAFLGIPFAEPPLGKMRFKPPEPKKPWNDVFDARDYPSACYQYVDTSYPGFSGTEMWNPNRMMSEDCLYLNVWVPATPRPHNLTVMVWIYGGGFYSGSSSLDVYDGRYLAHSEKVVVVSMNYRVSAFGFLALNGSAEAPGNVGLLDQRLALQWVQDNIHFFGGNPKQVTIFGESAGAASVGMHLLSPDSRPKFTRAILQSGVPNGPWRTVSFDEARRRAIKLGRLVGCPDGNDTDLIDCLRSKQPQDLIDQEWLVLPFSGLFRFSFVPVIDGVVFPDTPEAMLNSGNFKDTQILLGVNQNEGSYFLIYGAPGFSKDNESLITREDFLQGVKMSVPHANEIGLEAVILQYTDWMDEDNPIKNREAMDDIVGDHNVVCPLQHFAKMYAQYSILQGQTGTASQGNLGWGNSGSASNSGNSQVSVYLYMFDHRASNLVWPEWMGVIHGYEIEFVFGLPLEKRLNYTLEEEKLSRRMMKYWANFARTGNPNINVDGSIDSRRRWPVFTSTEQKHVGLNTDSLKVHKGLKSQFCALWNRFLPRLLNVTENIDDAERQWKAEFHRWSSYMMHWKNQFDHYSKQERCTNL
From the text: as §1, §2, §3

BChE [5] = molecular target: T1, BChE; assay: BChE-inhibitor kinetics (Lineweaver-Burk and Dixon plots); format: biochemical
Procedure: (§5) To evaluate the mechanism of AChE and BChE inhibition of the most promising compounds substrate-dependent kinetic experiments were performed. […] The results are presented as double reciprocal Lineweaver-Burk plots (1/V vs. 1/[S]). The kinetic data, namely Km and Vmax, were acquired employing Michaelis-Menten equation. The Ki values were estimated using Dixon plots, by replotting the slope of each Lineweaver-Burk plot vs. the inhibitor concentration. In the Dixon plots, the Ki value was obtained from the x-axis intercept (–Ki). The enzymatic reactions and measurements were performed using the same AChE and BChE assay conditions as described above (determined in triplicate). Linear regression analysis was performed using GraphPad Prism 5.0 (GraphPad Software, Inc.).
(§6) In order to understand the AChE and BChE inhibitory mechanism of the most promising ChE inhibitors, kinetic experiments were performed. […] Graphical analysis of the reciprocal Lineweaver–Burk plots was used to determine Michaelis-Menten reaction kinetic parameters (Km and Vmax).

[6] = mean ± SD; ref Teixeira et al. ([2017a]); cited from earlier work
[7] = ref Teixeira et al. ([2017a]); cited from earlier work
[8] = mean ± SD; ref Teixeira et al. ([2017a]); cited from earlier work; remark: listed apart in the source
HepG2 cells = assay: Cytotoxicity in HepG2 cells (resazurin reduction); format: cell-based, human; settings: 48 h; for cellular metabolic activity (resazurin reduction), cytotoxicity: HepG2, 1, 10 and 50 μM
Procedure: Human hepatocellular carcinoma cells (HepG2, ECACC, UK) were also used in this study. Cells were cultured in low-glucose medium (5 mM) composed by Dulbecco's modified Eagle's medium (DMEM, D5030) supplemented with sodium pyruvate (0.11 g/L), sodium bicarbonate (3.7 g/L), HEPES (1.19 g/L), 6 mM glutamine and 10% fetal bovine serum (FBS) and 1% of antibiotic penicillin-streptomycin 100 × solution. HepG2 (2.5 × 10^4 cells/well) cells were seeded in a 96-well plate and proliferate for 24 h before treatment.
as §4
Regarding the resazurin reduction assay, after the incubation time, the medium was replaced by fresh medium containing resazurin (10 μg/mL) prepared in sterile PBS (1X) and left to react for 1 h. The fluorescent signal was monitored using a 540 nm excitation wavelength and 590 nm emission wavelength in a Cytation 3 reader (BioTek Instruments Inc., USA). The percentage of resazurin reduction relative to that of the control cells was used as the cytotoxicity measure [resazurin reduction (% of control)] as means ± SEM of four independent experiments.

[9] = Redox properties by differential pulse and cyclic voltammetry; format: physicochemical; settings: physiological pH 7.4, differential pulse voltammetry, glassy carbon electrode
Procedure: Voltammetric studies were performed using an Autolab PGSTAT12 potentiostat/galvanostat (Metrohm Autolab, Netherland) and a one-compartment glass electrochemical cell.

[10] = ABTS radical cation scavenging assay; settings: mean ± SD, triplicate
Procedure: (§7) The IC50 values were determined in triplicate from the dose-response inhibition curves and are expressed as mean ± standard deviation (SD).

[11] = DPPH radical scavenging assay; settings: mean ± SD, triplicate
Procedure: as §7

AChE [12] = molecular target: T2, AChE; assay: AChE-inhibitor kinetics (Lineweaver-Burk and Dixon plots); format: biochemical, Electrophorus electricus (electric eel)
Procedure: as §5, §6

[13] = mean ± SD, triplicate, 30°C, read-out: IC50 BChE
[14] = Lineweaver-Burk plots, Vmax decreased, Km unchanged

Compound	neuroprotective effect against Aβ1–42 peptide-induced cytotoxicity (SH-SY5Y cells [1])	SI: BChE selectivity index = IC50(AChE)/IC50(BChE) (BChE [2])	cellular metabolic activity (MTT reduction), cytotoxicity (SH-SY5Y cells [3])	IC50 (AChE [4]) [µM]	cellular metabolic activity (resazurin reduction), cytotoxicity (HepG2 cells)	IC50 (BChE [2]) [µM]	Ep (oxidation potential) [9] [mV]	IC50 [10] [µM]	IC50 [11] [µM]	further results
O=C(NCCCCCC[P+](c1ccccc1)(c1ccccc1)c1ccccc1)c1ccc(O)c(O)c1 [AntiOxBEN1]	significantly prevented Aβ1–42 peptide-induced dysfunction/cell death	> 588	dose-dependent toxicity	> 50	dose-dependent toxicity	–	–	–	–	IC50 (BChE [2]; [13]): 0.085 ± 0.005 µM; effect on AChE (AChE [4]; at 50 μM): did not have any effect; Ki (BChE [5]): 0.0295 µM; BChE inhibition mechanism (BChE [5]; [14]): non-competitive; IC50 [6]: 31 ± 0.8 µM; Ep (oxidation potential) [7]: 219^* mV; IC50 [8]: 20.7 ± 0.8 µM
O=C(NCCCCCC[P+](c1ccccc1)(c1ccccc1)c1ccccc1)c1cc(O)c(O)c(O)c1 [AntiOxBEN2]	more evident	86	did not alter cellular metabolic activity	40.5 ± 7	did not alter cellular metabolic activity	–	–	–	–	IC50 (BChE [2]; [13]): 0.474 ± 0.017 µM; IC50 [6]: 14 ± 0.3 µM; Ep (oxidation potential) [7]: 115^* mV; IC50 [8]: 6.5 ± 0.5 µM
O=C(NCCCCCCCC[P+](c1ccccc1)(c1ccccc1)c1ccccc1)c1ccc(O)c(O)c1.[Br-] [Compound 15, (8-(3,4-Dihydroxybenzamido)octyl)triphenylphosphonium bromide]	–	106	dose-dependent toxicity	11.2 ± 0.8	dose-dependent toxicity	0.106 ± 0.005	216	23.5 ± 1.3	31.2 ± 0.9	–
O=C(NCCCCCCCC[P+](c1ccccc1)(c1ccccc1)c1ccccc1)c1cc(O)c(O)c(O)c1.[Br-] [Compound 16, (8-(3,4,5-Trihydroxybenzamido)octyl)triphenylphosphonium bromide]	more evident	62	did not alter cellular metabolic activity	15.7 ± 0.9	did not alter cellular metabolic activity	0.255 ± 0.009	121	6.8 ± 0.6	16.8 ± 1.6	–
O=C(NCCCCCCCCCC[P+](c1ccccc1)(c1ccccc1)c1ccccc1)c1ccc(O)c(O)c1.[Br-] [Compound 17, (10-(3,4-Dihydroxybenzamido)decyl)triphenylphosphonium bromide]	more evident	–	dose-dependent toxicity	7.7 ± 0.4	dose-dependent toxicity	0.195 ± 0.02	210	19.4 ± 1	31 ± 0.6	–
O=C(NCCCCCCCCCC[P+](c1ccccc1)(c1ccccc1)c1ccccc1)c1cc(O)c(O)c(O)c1.[Br-] [Compound 18, (10-(3,4,5-Trihydroxybenzamido)decyl)triphenylphosphonium bromide]	significantly prevented Aβ1–42 peptide-induced dysfunction/cell death	13	did not alter cellular metabolic activity	7.2 ± 0.5	did not alter cellular metabolic activity	0.553 ± 0.022	114	7.4 ± 0.5	10.2 ± 1.1	cellular metabolic activity (MTT reduction) (SH-SY5Y cells [3]; SH-SY5Y, 1 and 10 μM): slightly increased; Ki (AChE [12]): 6.6 µM; AChE inhibition mechanism (AChE [12]; [14]): non-competitive; cellular metabolic activity (resazurin reduction) (HepG2 cells; HepG2, 10 and 50 μM): slightly increased
Aβ1–42 [reference compound]	–	–	–	–	–	–	–	–	–	decrease of cell viability compared to control (SH-SY5Y cells [1]; Aβ1–42 peptide 25 μM, 48 h, resazurin): about 28%
